Laboratory results taken from PMC9953717, “Novel Green Fluorescent Polyamines to Analyze ATP13A2 and ATP13A3 Activity in the Mammalian Polyamine Transport System” (Biomolecules, 2023).

Target: T1, human ATP13A3 WT (A3 WT-OE) (Homo sapiens, UniProt Q9H7F0)
T1 construct: compared with catalytically dead D498N
T1 sequence (Q9H7F0 1-1226): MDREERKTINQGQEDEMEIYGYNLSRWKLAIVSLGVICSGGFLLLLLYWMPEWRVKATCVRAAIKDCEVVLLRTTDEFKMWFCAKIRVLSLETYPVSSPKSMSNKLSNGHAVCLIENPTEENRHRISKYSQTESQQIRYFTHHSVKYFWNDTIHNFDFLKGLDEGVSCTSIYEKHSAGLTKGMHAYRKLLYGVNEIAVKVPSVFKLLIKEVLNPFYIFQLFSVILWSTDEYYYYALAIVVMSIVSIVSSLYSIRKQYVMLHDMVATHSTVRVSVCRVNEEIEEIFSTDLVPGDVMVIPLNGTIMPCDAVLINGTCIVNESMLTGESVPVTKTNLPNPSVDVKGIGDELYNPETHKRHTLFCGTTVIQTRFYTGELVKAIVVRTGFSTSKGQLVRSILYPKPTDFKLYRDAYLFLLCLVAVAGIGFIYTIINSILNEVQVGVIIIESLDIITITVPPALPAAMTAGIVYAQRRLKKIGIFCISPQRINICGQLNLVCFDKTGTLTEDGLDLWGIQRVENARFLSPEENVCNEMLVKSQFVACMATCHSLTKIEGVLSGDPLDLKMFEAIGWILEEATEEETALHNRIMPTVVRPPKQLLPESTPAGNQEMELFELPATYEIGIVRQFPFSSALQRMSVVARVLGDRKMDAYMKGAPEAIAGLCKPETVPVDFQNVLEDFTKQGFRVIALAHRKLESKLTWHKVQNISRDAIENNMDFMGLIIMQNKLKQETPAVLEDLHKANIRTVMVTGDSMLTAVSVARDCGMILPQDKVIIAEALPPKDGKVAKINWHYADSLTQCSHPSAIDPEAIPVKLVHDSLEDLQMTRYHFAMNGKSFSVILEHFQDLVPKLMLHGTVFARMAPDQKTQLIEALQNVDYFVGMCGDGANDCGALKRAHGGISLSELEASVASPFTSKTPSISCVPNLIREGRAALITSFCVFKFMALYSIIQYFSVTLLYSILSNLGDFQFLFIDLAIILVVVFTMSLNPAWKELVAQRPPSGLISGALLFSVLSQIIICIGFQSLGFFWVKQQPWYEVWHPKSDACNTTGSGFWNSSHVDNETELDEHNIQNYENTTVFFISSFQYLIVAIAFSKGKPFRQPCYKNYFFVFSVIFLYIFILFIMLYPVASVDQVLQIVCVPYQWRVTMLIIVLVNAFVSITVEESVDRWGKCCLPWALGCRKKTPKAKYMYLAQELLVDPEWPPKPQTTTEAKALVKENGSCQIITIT
Assay: radiolabeled uptake in HMEC-1 cells, WT versus D498N overexpression
Format: cell-based
Conditions: 30 min, 37 °C, labelled compound

Row | SMILES | fold uptake at 5 μM [fold]
1 | NCCCCN [14C-PUT] | 26
2 | NCCCCNCCCN [14C-SPD] | 41
